According to patent publication US20260191817A1, “FIBROBLAST MODULATORS IN STROMA-RICH TUMORS” (UNIVERSITEIT GENT, priority 2022, published 2026):

What was measured:
13B2 hTERT breast CAFs = test: AFM spheroid stiffness, 13B2 hTERT breast CAFs; type: cell-based, human; settings: 48 h during spheroid formation; for Young's modulus / spheroid stiffness: 1 μM; for spheroid stiffness: 10 μM
Text: (§1) It is well established that an increased tumor and ECM stiffness is associated with a negative prognosis as it promotes tumor growth, progression, therapy resistance, immunosuppression and metastasis. Stiffness is chiefly regulated by the action of the CAFs in the TME. Stiffness modulation is, therefore, a fitting read-out of activity in a screen for CAF modulators. To assess stiffness modulation, the stiffness of spheroids of CAF cells treated with test compounds was interrogated using atomic force microscopy (AFM) indentation and compared with untreated cells. AFM measurement of the stiffness (elasticity) of cells and spheroids is a technique well-known to those skilled in the art. AFM measures the force required to create a given deflection, this read-out is also known as the Young's modulus. AFM is widely used in biology and cancer research: altered physicochemical properties of live cells serve as a read-out of altered complex physiological processes.
(§2) U-shaped, 384-well ULA plates (cat. no. MS-9384UZ, S-bio) were seeded with a suspension of cell-specific culture media with cells. Cells were allowed to form spheroids for an appropriate time under treatment conditions before use in experiments. Cell culture dishes (cat. no. 734-2814, VWR) were filled with collagen gel and placed at 37° C. for an appropriate time to allow solidification. For each condition, spheroids were pooled in one cell culture dish. The medium was removed (stored at 37° C.) to promote attachment of the bottom of each spheroid to the collagen gel. The cell culture dishes were incubated at 37° C. After the incubation period, the stored medium was carefully (prevent detachment of spheroids) added to the dishes.
(§3) Mechanical measurements were performed using an atomic force microscope. To indent the spheroids an in-house made colloidal probe was used. Force curves were collected using an appropriate setpoint and probe speed (depending on the stiffness of the spheroids). On each spheroid multiple force curves were collected. Collected curves were then processed using the JPK DP software. Young's modulus was extracted from the force curves. All experiments were performed in biological triplicate.
(§4) To generate 3D cultures mimicking the complexity and pathophysiology of in vivo tumors, spheroids were used (cfr. point 4). Spheroids are considered to better simulate cellular heterogeneity, nutrient and oxygen gradients, cell-cell interactions, cell-matrix interactions, gene expression profiles, stromal interactions, therapeutic responses, multicellular resistance, drug penetration and anti-apoptotic signaling.

[1] = system: human invasive MCF-7/6 mammary carcinoma cells; test: Chick heart invasion (CHI) assay with MCF-7/6 aggregates; type: cell-based; settings: MCF7/6, 192 h, lowest concentration at which an anti-invasive effect (histological grade I or II) was observed, 8 days, read-out: Lowest active concentration
Protocol: Chick heart invasion assays were performed as described earlier (Bracke et al. 2014). Precultured heart fragments of 9-day-old chicken embryos were confronted with MCF-7/6 aggregates on top of a semi-solid agar at 37° C. overnight, after which the confronting pairs were cultured in suspension for 8 days at 37° C., 10% CO2 in presence or absence of a test compound (in duplo). This procedure can also be performed with aggregates of 4T1-Luc cells, for which the suspension culture of the confronting pairs is performed for 3.5 days. All compounds were evaluated at 1 μM and 100 nM; depending on the outcome higher or lower concentrations were subsequently evaluated. Upon fixation in Bouin-Hollande, the cultures were dehydrated and embedded in paraffin. Sections of the confrontation cultures were stained with hematoxylin-eosin are blinded and scored by a trained person (Bracke et al., 2014).
In the chick heart invasion assay cancer cells are confronted with a fragment of normal tissue, so as not to neglect the contribution of the host tissue in the micro-ecosystem that governs tumor behavior. As such, precultured heart tissue fragments (PHFs), dissected from 9-day-old chicken embryos, may be confronted with aggregates of human invasive MCF-7/6 mammary carcinoma cells or other cells in the presence of a certain concentration of a test compound. After eight days for MCF-7/6, or another period depending on the cell type, the interaction between the cancer cells and the PHF is evaluated histologically and classified along a 5-grades subjective scale (Bracke et al. 2014). Grades III and IV are typical for invasion, while grades 0, I and II correspond to absence of invasion. Compounds that inhibit invasion of confronting cancer cells i.e. from III/IV to 0/I/II, are determined as anti-invasive. Possible alternative assays generally known in the art are the type I collagen invasion assay, wound healing assay and the matrigel invasion assay.
The chick heart invasion (CHI) assay is a phenotypic assay that confronts precultured heart tissue fragments (PHFs, ‘normal tissue’), obtained from 9-day-old chicken embryos, with aggregates of human invasive MCF-7/6 mammary carcinoma cells (Bracke et al. 2014). In the control situation, the MCF-7/6 cells encircle, invade and destroy the PHF over an 8-day period. Invasion in this assay is defined as the progressive occupation and destruction of the PHF by the MCF-7/6 cells. Three-dimensional reconstruction of this interaction is obtained by microscopic analysis of all consecutive histological sections of the culture. The read-out is an invasion score according to a 5-grades histological scale.
The CHI closely reproduces the temporal, spatial and histological invasion patterns in man. The co-culture set-up probes for effects on both tumor cells and host tissue, and thus interrogates potential pharmacological targets in either interaction partner. Its use of histological evaluation allows discerning anti-invasive action from cytotoxicity or other effects.
We have submitted flavones B1-B4, flavanones B5-B8 and the intermediate 2′-hydroxychalcones A9, All and A12 to the chick heart invasion assay using MCF-7/6 aggregates. All compounds were evaluated at 1 μM and 100 nM; depending on the outcome higher or lower concentrations were subsequently evaluated. […] This table also includes CHI data on chalcones A1, A2 and A5.

CAF03 glioblastoma CAFs = test: AFM spheroid stiffness, CAF03 glioblastoma CAFs; type: cell-based; settings: 10 μM, 48 h
Text: as §1, §2, §3, §4

[2] = system: HCA2 hTERT dermal fibroblasts; test: AFM spheroid stiffness, HCA2 hTERT dermal fibroblasts; type: cell-based; settings: HCA2 hTERT normal dermal fibroblasts; 10 μM, 48 h
Protocol: (§5) Selectivity for CAFs with respect to normal fibroblasts and other cell types was assessed by performing an identical experiment with normal fibroblasts and other cell types, where compounds were considered selective for CAFs if they only modulate CAF stiffness.
as §2, §3, §4

[3] = system: primary glioblastoma (GBM) cells; test: AFM spheroid stiffness, primary glioblastoma cells; type: cell-based, human; settings: 10 μM, 48 h
Protocol: as §5, §2, §3, §4

[4] = system: MCF-7/6 breast cancer cells; test: AFM spheroid stiffness, MCF-7/6 breast cancer cells; type: cell-based, human; settings: 10 μM, 48 h
Protocol: as §5, §2, §3, §4

[5] = system: primary human atrial fibroblasts; test: AFM spheroid stiffness, primary human atrial fibroblasts; type: cell-based; settings: 10 μM, 48 h
Protocol: as §5, §2, §3, §4

O=C(/C=C/c1ccccc1)c1ccccc1 [Compound A8, 1,3-Diphenvlprop2-en-1-one]
Young's modulus / spheroid stiffness (13B2 hTERT breast CAFs): did not have an effect

COc1ccc(C(=O)/C=C/c2ccc(Cl)cc2)cc1 [Compound A2, 3-(4-Chlorophenyl)-1-(4-methoxyphenyl)prop2-en-1-one]
minimal effective concentration [1]: 0.01 µM

COc1ccc2c(c1)OC(c1ccc(Cl)cc1)CC2=O (centres unmarked) [Compound B8, 2-(4-Chlorophenyl)-7-methoxvchroman-4-one]
minimal effective concentration [1]: 0.1 µM

COc1cc2c(c(OC)c1OC)OC(c1ccc(F)cc1)CC2=O (centres unmarked) [Compound B6, 2-(4-Fluorophenyl)-6,7,8-dimethoxychroman-4-one]
minimal effective concentration [1]: 100 µM

COc1ccc(C(=O)/C=C/c2ccc(Cl)cc2)c(O)c1 [Compound A13, 3-(4-chlorophenyl)-1-(2-hydroxy-4-methoxyphenyl)prop-2-en-1-one]
minimal effective concentration [1]: 0.1 µM

COc1ccc(C(=O)/C=C/c2ccc(F)cc2)cc1C(F)(F)F [Compound A14, 3-(4-Fluorophenyl)-1-(4-methoxy-3-(trifluoromethyl)phenyl)prop-2-en-1-one]
Young's modulus / spheroid stiffness (13B2 hTERT breast CAFs): decreased

C=C1[C@@H](C)[C@H]2[C@H](Cc3ccccc3)NC(=O)[C@]23[C@H](OC(C)=O)/C=C/[C@@](C)(O)C(=O)[C@@H](C)C/C=C/[C@H]3[C@@H]1O [cytochalasin D, reference compound]
spheroid stiffness (13B2 hTERT breast CAFs): active | spheroid stiffness (CAF03 glioblastoma CAFs): active | spheroid stiffness [2]: reduced the stiffness | spheroid stiffness [3]: reduced the stiffness | spheroid stiffness [4]: reduced the stiffness | spheroid stiffness [5]: reduced the stiffness

COc1ccc2c(=O)cc(-c3ccc(Cl)cc3)oc2c1 [Compound B4, 2-(4-Chlorophenyl)-7-methoxy-4H-chromen-4-one]
minimal effective concentration [1]: 0.01 µM

COc1ccc2c(=O)cc(-c3ccc(F)cc3)oc2c1 [Compound B3, 2-(4-Fluorophenyl)-7-methoxy-4H-chromen-4-one]
minimal effective concentration [1]: 0.01 µM

Cc1ccc2c(c1)C(=O)C1(O)CCN(c3ccccc3)C1=N2 (centres unmarked) [blebbistatin, reference compound]
spheroid stiffness (13B2 hTERT breast CAFs): active | spheroid stiffness (CAF03 glioblastoma CAFs): active | spheroid stiffness [2]: reduced the stiffness | spheroid stiffness [3]: reduced the stiffness | spheroid stiffness [4]: reduced the stiffness | spheroid stiffness [5]: reduced the stiffness

C[C@@H](N)[C@H]1CC[C@H](C(=O)Nc2ccncc2)CC1 [Compound Y-27632, Y-27632, reference compound]
spheroid stiffness (13B2 hTERT breast CAFs): active | spheroid stiffness (CAF03 glioblastoma CAFs): active | spheroid stiffness [2]: reduced the stiffness | spheroid stiffness [3]: reduced the stiffness | spheroid stiffness [4]: reduced the stiffness | spheroid stiffness [5]: reduced the stiffness

COc1ccc2c(c1)OC(c1ccc(F)cc1)CC2=O (centres unmarked) [Compound B7, 2-(4-Fluorophenvl)-7-methoxvchroman-4-one]
minimal effective concentration [1]: 10 µM

COc1ccc(C(=O)/C=C/c2ccc(F)cc2)cc1 [Compound A5, 3-(4-Fluorophenyl)-1-(4-methoxyphenyl)prop2-en-1-one]
minimal effective concentration [1]: 1 µM

COc1ccc(C(=O)/C=C/c2ccc(F)cc2)c(O)c1 [Compound A12, 3-(4-fluorophenyl)-1-(2-hydroxy-4-methoxyphenyl)prop-2-en-1-one]
minimal effective concentration [1]: 1 µM

COc1cc(O)c(C(=O)/C=C/c2ccc(F)cc2)c(OC)c1OC [Compound A10, 3-(4-Fluorophenyl)-1-(6-hydroxy-2,3,4-trimethoxyphenyl)prop-2-en-1-one]
minimal effective concentration [1]: 0.01 µM

COc1cc2c(=O)cc(-c3ccc(F)cc3)oc2c(OC)c1OC [Compound B2, 2-(4-Fluorophenyl)-6,7,8-trimethoxy-4H-chromen-4-one]
minimal effective concentration [1]: 10 µM

COc1cc2c(c(OC)c1OC)C(=O)CC(c1ccc(F)cc1)O2 (centres unmarked) [Compound B5, 2-(4-Fluorophenyl)-5,6,7-dimethoxychroman-4-one]
minimal effective concentration [1]: 0.1 µM
